Tested on: pancreatic cancer cell line SW1990
Assay: Relative quantitation of sialylated N-glycans from SW1990 cells with and without 1,3,4-O-Bu3ManNAc treatment (light/heavy p-toluidine labeling, MALDI-MS)
Format: cell-based
Details: for H/L: SW1990 cells treated (heavy) vs untreated (light), glycan Core+Na
Experimental: Proteins were immobilized to amino link beads via reductive amination. Briefly, AminoLink resin (200 μL) was loaded onto snap-cap spin-column, centrifuged at 2000 g for 1 minute. Resin was washed with 450 μL of pH 10 buffer (Sodium citrate 100 mM and sodium carbonate 50 mM) followed by centrifugation. The washing step was repeated twice. Proteins dissolved in pH 10 buffer were loaded onto prepared AminoLink resin in snap-cap spin-column in 1 mg/200 μL beads ratio. The volume was adjusted to 450 μL using pH 10 buffer. Sample-resin mixture was incubated at room temperature overnight. The mixture was centrifuged at 2000 g to remove any unbound protein. Resin was rinsed by 1×PBS buffer (Sigma-Aldrich; pH 7.4; 450 μL) three times. PBS buffer in the presence of 50 mM sodium cyanoborohydride (450 μL) was added to resin (spin-column capped during each incubation step). After a four hour incubation, supernatant was removed via centrifugation (2000 g) and 450 μL of 1 M Tris-HCl (pH 7.6) in the presence of 50 mM sodium cyanoborohydride was added to block un-reacted aldehyde sites of resin. The blocking process was terminated after 1 hour, followed by washing of resin with PBS twice, 1M […] twice and water three times.
Proteins conjugated on solid support were mixed with 450 μL of 1M p-toluidine and 40 μL of EDC at pH 4.5 adjusted using HCl. After incubation for 4 hours, beads were washed twice with 500 μL of 1M NaCl and water followed by 50 mM ammonium bicarbonate, three times for each solution, and treated with 100 units of PNGase F in 0.3 mL of 50 mM ammonium bicarbonate overnight at 37° C. to release N-glycans from proteins. Nglycans released in the supernatant were subsequently collected. The N-glycans released from glycoproteins were further purified and concentrated over Carbograph columns (Extract-Clean SPE Carbo 150 mg; Grace Division Discovery Science; Deerfield, Ill.) and eluted in 0.1% TFA 50% acetonitrile/water following the manufacturer's instruction (Grace Davison Discovery Sciences, Milwaukee, Wis.). Glycans were then dried in Savant Speed-Vac (Thermo Scientific, Asheville, N.C.).
Glycans were resuspended in 20 μL of water. Sample 1.5 μL was mixed 1.5 μL of matrix on a 384-well goals MALDI plate (Hudson Surface Technology, Fort Lee, N.J.). DHB matrix solution was prepared by dissolving 100 mg of DHB in 1 mL of a 1:1 solution of water and ACN followed by addition of 40 μL of dimethylaniline. Glycans were analyzed by Shimadzu AXIMA Resonance Mass Spectrometer (Shimadzu, Columbia, Md.) in positive mode.
It has been well established that the extent of glycan sialylation depends on sialyltransferases, the biosynthetic enzymes responsible for adding a sialic acid to an underlying galactose or GalNAc residue. […] To fill this void, in the present invention we profiled N-glycans in SW1990 treated with 1,3,4-O-Bu3ManNAc as previously described. Protein extract from 1,3,4-O-Bu3ManNAc treated SW1990 cells and untreated control cells were conjugated to solid support and labeled with isotopic p-toluidine as described above. The mass spectrometric analysis of labeled glycans identified 87 N-glycans based on accurate mass (data not shown). Sialic acid compositional assignment was determined based on the differences of heavy and light labeled glycans. Twenty one heavy and light glycan peaks were identified with a mass shift of 7 or a multiple of 7, confirming that the presence of 21 sialylated glycans (FIGS. 13A and 13B). Qualitative analysis of N-glycans from cells with and without ManNAc treatment using isotopic labeling of sialylated N-glycans with 1:1 combined samples identified and quantified 14 sialylated glycans (Table 5). Seven other sialylated Nglycans could not be quantified due to low signal to noise ratio when the two samples were combined for MS analysis.

## CCCC(=O)OC1O[C@H](CO)[C@@H](OC(=O)CCC)[C@H](OC(=O)CCC)[C@@H]1NC(C)=O (stereo partly shown) [1,3,4-O—Bu3ManNAc, 1,3,4-O-Bu3ManNAc]
Fucose 0, HexNAc 2, Hexose 2, Sialic Acid 1, [M+Na] 2043.89
  H/L: 1.29
Fucose 1, HexNAc 2, Hexose 2, Sialic Acid 1, [M+Na] 2189.95
  H/L: 1.09
Fucose 1, HexNAc 2, Hexose 2, Sialic Acid 2, [M+Na] 2570.21
  H/L: 1.02
Fucose 1, HexNAc 3, Hexose 2, Sialic Acid 1, [M+Na] 2393.04
  H/L: 1.95
Fucose 1, HexNAc 3, Hexose 2, Sialic Acid 2, [M+Na] 2773.31
  H/L: 1.70
Fucose 1, HexNAc 3, Hexose 3, Sialic Acid 1, [M+Na] 2555.10
  H/L: 1.31
Fucose 1, HexNAc 3, Hexose 3, Sialic Acid 2, [M+Na] 2935.36
  H/L: 0.98
Fucose 1, HexNAc 4, Hexose 3, Sialic Acid 1, [M+Na] 2758.19
  H/L: 1.66
Fucose 2, HexNAc 2, Hexose 2, Sialic Acid 1, [M+Na] 2336.01
  H/L: 1.10
Fucose 2, HexNAc 3, Hexose 2, Sialic Acid 1, [M+Na] 2539.10
  H/L: 1.31
Fucose 2, HexNAc 3, Hexose 3, Sialic Acid 1, [M+Na] 2701.15
  H/L: 1.03
Fucose 2, HexNAc 4, Hexose 3, Sialic Acid 1, [M+Na] 2904.25
  H/L: 2.04
Fucose 3, HexNAc 3, Hexose 2, Sialic Acid 1, [M+Na] 2585.15
  H/L: 1.00
Fucose 3, HexNAc 4, Hexose 3, Sialic Acid 1, [M+Na] 3050.31
  H/L: 1.39
SW1990 cells, treated vs untreated
  decrease in sialylated N-glycans when cells were treated: no significant decrease
SW1990 cells, treated vs untreated, 14 sialylated glycans quantified
  number of sialylated N-glycan compositions with a significant increase in abundance: six

From US20150233903A1, “SOLID PHASE GLYCAN AND GLYCOPEPTIDE ANALYSIS AND MICROFLUIDIC CHIP FOR GLYCOMIC EXTRACTION, ANALYSIS AND METHODS FOR USING SAME” (THE JOHNS HOPKINS UNIVERSITY, priority 2012, published 2015)
